*1 amine or outer side, *2 acyl side, *3 side chain or, on linkers, in order; H or OH if unused. Where a SMILES comes first, the peptide text is derived from it. Bridges are numbered along the chain shown (N, C = ends). [ ]: non-standard residue; d: D form. 2Nal = N[C@@H](Cc1ccc2ccccc2c1)C(=O)O; X1 = NC(=O)CCCCN(CC(=O)[*:2])[*:1]; NMeR = CN[C@@H](CCCNC(=N)N)C(=O)O; Cha = N[C@@H](CC1CCCCC1)C(=O)O; Cba = N[C@@H](CC1CCC1)C(=O)O; S5 = C=CCCC[C@](C)(N)C(=O)O; βAla = NCCC(=O)O
Test system: Colo320DM
Test: Colo320DM cell viability
Assay type: cell-based, human
From the text: In some embodiments, a polypeptide described herein inhibits binding of BLC9 to β-catenin when assessed in a cell-viability assay. In some embodiments, the cell-viability assay is a CellTiterGlo luminescent assay, wherein the viability of cells is quantitatively measured. Various cell lines, transformed cell lines or primary cells derived from a healthy subject or subject suffering from a disease can be used in this assay.

Row | SMILES | IC50 [µM]
1 | CC[C@H](C)[C@@H]1NC(=O)[C@@](C)(NC(=O)[C@H](CCCNC(=N)N)NC(=O)[C@H](CC(C)C)NC(=O)[C@@H](NC(=O)[C@]2(C)CCCC=CCCC[C@](C)(NC(=O)[C@H](CCCNC(=N)N)NC(=O)[C@H](Cc3c[nH]cn3)NC(C)=O)C(=O)N[C@@H](CCCNC(=N)N)C(=O)N[C@@H](CO)C(=O)N[C@@H](CC(C)C)C(=O)N2)[C@@H](C)O)CCCC=CCCC[C@@](C)(C(=O)N[C@@H](CC2CCC2)C(=O)N[C@@H](Cc2ccc3ccccc3c2)C(N)=O)NC(=O)[C@H](CCCNC(=N)N)NC(=O)[C@H](CCC(N)=O)NC1=O [SEQ ID NO: 94, HRXRSLXTLRZIQRZ(CBA)(2-Nal)] (Ac-HR[S5]RSL[S5]TLR[S5]IQR[S5][Cba][2Nal]-NH2; staple 3-7, 11-15) | 3.34
2 | CC[C@H](C)[C@@H]1NC(=O)[C@@](C)(NC(=O)[C@H](CCCNC(=N)N)NC(=O)[C@H](CC(C)C)NC(=O)[C@@H](NC(=O)[C@H](CCC(N)=O)NC(=O)[C@H](CC(C)C)NC(=O)[C@H](CO)NC(=O)[C@H](CCCNC(=N)N)NC(=O)[C@H](CCC(=O)O)NC(=O)[C@H](CCCNC(=N)N)NC(=O)[C@H](Cc2c[nH]cn2)NC(C)=O)[C@@H](C)O)CCCC=CCCC[C@@](C)(C(=O)N[C@@H](CC(C)C)C(=O)N[C@@H](Cc2ccc3ccccc3c2)C(N)=O)NC(=O)[C@H](CCCNC(=N)N)NC(=O)[C@H](CCC(N)=O)NC1=O [SEQ ID NO: 6, HRERSLQTLRXIQRXL(2-Nal)] (Ac-HRERSLQTLR[S5]IQR[S5]L[2Nal]-NH2; staple 11-15) | 5.3
3 | CC[C@H](C)[C@@H]1NC(=O)[C@@](C)(NC(=O)[C@H](CCCNC(=N)N)NC(=O)[C@H](CC(C)C)NC(=O)[C@]2(C)CCCC=CCCC[C@](C)(NC(=O)[C@H](CCC(=O)O)NC(=O)[C@H](CCCNC(=N)N)NC(C)=O)C(=O)N[C@@H](CO)C(=O)N[C@@H](CC(C)C)C(=O)N[C@@H](CCC(N)=O)C(=O)N2)CCCC=CCCC[C@@](C)(C(=O)N[C@@H](CC(C)C)C(=O)N[C@@H](Cc2ccc3ccccc3c2)C(=O)NCCC(=O)NCCC(N)=O)NC(=O)[C@H](CCCNC(=N)N)NC(=O)[C@H](CCC(N)=O)NC1=O [SEQ ID NO: 40, REXSLQXLRZIQRZL(2-Nal)(β-Ala)(β-Ala)] (Ac-RE[S5]SLQ[S5]LR[S5]IQR[S5]L[2Nal][βAla][βAla]-NH2; staple 3-7, 10-14) | 0.83
4 | CC[C@H](C)[C@@H]1NC(=O)[C@@](C)(NC(=O)[C@H](CCCNC(=N)N)NC(=O)[C@H](CC2CCCCC2)NC(=O)[C@]2(C)CCCC=CCCC[C@](C)(NC(=O)[C@H](CCCNC(=N)N)NC(=O)[C@H](CCC(N)=O)NC(=O)[C@H](CCCNC(=N)N)NC(=O)[C@H](Cc3c[nH]cn3)NC(C)=O)C(=O)N[C@@H](CC(C)C)C(=O)N[C@@H](CCC(N)=O)C(=O)N2)CCCC=CCCC[C@@](C)(C(=O)N[C@@H](CC2CCCCC2)C(=O)N[C@@H](Cc2ccc3ccccc3c2)C(N)=O)NC(=O)[C@H](CCCNC(=N)N)NC(=O)[C@H](CCC(N)=O)NC1=O [SEQ ID NO: 92, HRQRXLQX(Cha)RZIQRZ(Cha)(2-Nal)] (Ac-HRQR[S5]LQ[S5][Cha]R[S5]IQR[S5][Cha][2Nal]-NH2; staple 5-8, 11-15) | 2.54
5 | CC[C@H](C)[C@@H]1NC(=O)[C@@](C)(NC(=O)[C@H](CCCNC(=N)N)NC(=O)[C@H](CC(C)C)NC(=O)[C@@H](NC(=O)[C@H](CCC(N)=O)NC(=O)[C@H](CC(C)C)NC(=O)[C@H](CO)NC(=O)[C@H](CCCNC(=N)N)NC(=O)[C@H](CCC(=O)O)NC(=O)[C@H](CCCNC(=N)N)NC(=O)[C@H](Cc2c[nH]cn2)NC(=O)[C@H](CCC(=O)O)NC(C)=O)[C@@H](C)O)CCCC=CCCC[C@@](C)(C(=O)N[C@@H](CC(C)C)C(=O)N[C@@H](Cc2ccc3ccccc3c2)C(N)=O)NC(=O)[C@H](CCCNC(=N)N)NC(=O)[C@H](CCC(N)=O)NC1=O [SEQ ID NO: 7, EHRERSLQTLRXIQRXL(2-Nal)] (Ac-EHRERSLQTLR[S5]IQR[S5]L[2Nal]-NH2; staple 12-16) | 9.1
6 | CC[C@H](C)[C@@H]1NC(=O)[C@@](C)(NC(=O)[C@H](CCCNC(=N)N)NC(=O)[C@H](CC(C)C)NC(=O)[C@@H](NC(=O)CN(CCCCC(N)=O)C(=O)[C@H](CC(C)C)NC(=O)[C@H](CO)NC(=O)[C@H](CCCNC(=N)N)NC(=O)[C@H](CCC(N)=O)NC(=O)[C@H](CCCNC(=N)N)NC(=O)[C@H](Cc2c[nH]cn2)NC(C)=O)[C@@H](C)O)CCCC=CCCC[C@@](C)(C(=O)N[C@@H](CC2CCC2)C(=O)N[C@@H](Cc2ccc3ccccc3c2)C(N)=O)NC(=O)[C@H](CCCNC(=N)N)NC(=O)[C@H](CCC(N)=O)NC1=O [SEQ ID NO: 169, HRQRSL(peptoid-Q)TLRXIQRX(CBA)(2-Nal)] (Ac-HRQRSL[X1]TLR[S5]IQR[S5][Cba][2Nal]-NH2; staple 11-15) | 4.98
7 | CC[C@H](C)[C@@H]1NC(=O)[C@@](C)(NC(=O)[C@H](CCCNC(=N)N)NC(=O)[C@H](CC(C)C)NC(=O)[C@@H](NC(=O)[C@H](CCC(N)=O)NC(=O)[C@H](CC(C)C)NC(=O)[C@H](CO)NC(=O)[C@H](CCCNC(=N)N)NC(=O)[C@H](CCC(=O)O)NC(=O)[C@H](CCC(N)=O)NC(=O)[C@H](Cc2c[nH]cn2)NC(C)=O)[C@@H](C)O)CCCC=CCCC[C@@](C)(C(=O)N[C@@H](CC(C)C)C(=O)N[C@@H](Cc2ccc3ccccc3c2)C(N)=O)NC(=O)[C@H](CCCNC(=N)N)NC(=O)[C@H](CCC(N)=O)NC1=O [SEQ ID NO: 11, HQERSLQTLRXIQRXL(2-Nal)] (Ac-HQERSLQTLR[S5]IQR[S5]L[2Nal]-NH2; staple 11-15) | 1.51
8 | CC[C@H](C)[C@@H]1NC(=O)[C@@](C)(NC(=O)[C@H](CCCNC(=N)N)NC(=O)[C@H](CC(C)C)NC(=O)[C@@H](NC(=O)[C@H](CCC(N)=O)NC(=O)[C@H](CC(C)C)NC(=O)[C@H](CO)NC(=O)[C@H](CCCNC(=N)N)NC(=O)[C@H](CCC(=O)O)NC(=O)[C@H](CCCNC(=N)N)NC(=O)[C@H](Cc2c[nH]cn2)NC(=O)[C@H](CCC(=O)O)NC(C)=O)[C@@H](C)O)CCCC=CCCC[C@@](C)(C(=O)N[C@@H](CC2CCC2)C(=O)N[C@@H](Cc2ccc3ccccc3c2)C(N)=O)NC(=O)[C@H](CCCNC(=N)N)NC(=O)[C@H](CCC(N)=O)NC1=O [SEQ ID NO: 9, EHRERSLQTLRXIQRX(CBA)(2-Nal)] (Ac-EHRERSLQTLR[S5]IQR[S5][Cba][2Nal]-NH2; staple 12-16) | 1.9
9 | CC[C@H](C)[C@@H]1NC(=O)[C@@](C)(NC(=O)[C@H](CCCNC(=N)N)NC(=O)[C@H](CC(C)C)NC(=O)[C@@H](NC(=O)[C@H](CCC(N)=O)NC(=O)[C@H](CC(C)C)NC(=O)[C@H](CO)NC(=O)[C@H](CCCNC(=N)N)NC(=O)[C@H](CCC(=O)O)NC(=O)[C@H](CCCNC(=N)N)NC(=O)[C@H](Cc2c[nH]cn2)NC(=O)[C@H](CCC(=O)O)NC(=O)[C@H](CC(C)C)NC(=O)[C@H](CCC(N)=O)NC(C)=O)[C@@H](C)O)CCCC=CCCC[C@@](C)(C(=O)N[C@@H](CC(C)C)C(=O)N[C@@H](Cc2ccc3ccccc3c2)C(N)=O)NC(=O)[C@H](CCCNC(=N)N)NC(=O)[C@H](CCC(N)=O)NC1=O [SEQ ID NO: 8, QLEHRERSLQTLRXIQRXL(2-Nal)] (Ac-QLEHRERSLQTLR[S5]IQR[S5]L[2Nal]-NH2; staple 14-18) | 6.3
10 | CC[C@H](C)[C@@H]1NC(=O)[C@@](C)(NC(=O)[C@H](CCCNC(=N)N)NC(=O)[C@H](CC(C)C)NC(=O)[C@@H](NC(=O)[C@H](CCC(N)=O)NC(=O)[C@H](CC(C)C)NC(=O)[C@H](CO)NC(=O)[C@H](CCCNC(=N)N)NC(=O)[C@H](CCC(N)=O)NC(=O)[C@H](CCCNC(=N)N)NC(=O)[C@H](Cc2c[nH]cn2)NC(C)=O)[C@@H](C)O)CCCC=CCCC[C@@](C)(C(=O)N[C@@H](Cc2ccc(Cl)cc2)C(=O)N[C@@H](Cc2ccc3ccccc3c2)C(N)=O)NC(=O)[C@H](CCCNC(=N)N)NC(=O)[C@H](CCC(N)=O)NC1=O (single isomer, unassigned) [SEQ ID NO: 179, HRQRSLQTLRXIQRX(Phe-4-Cl)(2-Nal)] | 4.68
11 | CC[C@H](C)[C@@H]1NC(=O)[C@@](C)(NC(=O)[C@H](CCCNC(=N)N)NC(=O)[C@H](CC(C)C)NC(=O)[C@@H](NC(=O)[C@H](CCC(N)=O)NC(=O)[C@H](CC(C)C)NC(=O)[C@H](CO)NC(=O)[C@H](CCCNC(=N)N)NC(=O)[C@H](CCC(N)=O)NC(=O)[C@H](CCCNC(=N)N)NC(=O)[C@H](Cc2c[nH]cn2)NC(C)=O)[C@@H](C)O)CCCC=CCCC[C@@](C)(C(=O)N[C@@H](CC2CCCCC2)C(=O)N[C@@H](Cc2ccc3ccccc3c2)C(N)=O)NC(=O)[C@H](CCCNC(=N)N)N(C)C(=O)[C@H](CCC(N)=O)NC1=O [SEQ ID NO: 190, HRQRSLQTLRXIQ(N-MeArg)X(Cha)(2-Nal)] (Ac-HRQRSLQTLR[S5]IQ[NMeR][S5][Cha][2Nal]-NH2; staple 11-15) | 5.89
12 | CC[C@H](C)[C@@H]1NC(=O)[C@@](C)(NC(=O)[C@H](CCCNC(=N)N)NC(=O)[C@H](CC(C)C)NC(=O)[C@@H](NC(=O)[C@H](CCC(N)=O)NC(=O)[C@H](CC(C)C)NC(=O)[C@H](CO)NC(=O)[C@H](CCCNC(=N)N)NC(=O)[C@H](CCC(N)=O)NC(=O)[C@H](CCCNC(=N)N)N(C)C(=O)[C@H](Cc2c[nH]cn2)NC(C)=O)[C@@H](C)O)CCCC=CCCC[C@@](C)(C(=O)N[C@@H](CC2CCC2)C(=O)N[C@@H](Cc2ccc3ccccc3c2)C(N)=O)NC(=O)[C@H](CCCNC(=N)N)NC(=O)[C@H](CCC(N)=O)NC1=O (single isomer, unassigned) [SEQ ID NO: 158, H(R-Me)QRSLQTLRXIQRX(CBA)(2-Nal)] | 3.32
13 | CC[C@H](C)[C@@H]1NC(=O)[C@@](C)(NC(=O)[C@H](CCCNC(=N)N)NC(=O)[C@H](CC(C)C)NC(=O)[C@@H](NC(=O)[C@H](CCC(N)=O)N(C)C(=O)[C@H](CC(C)C)NC(C)=O)[C@@H](C)O)CCCC=CCCC[C@@](C)(C(=O)N[C@@H](CC2CCC2)C(=O)N[C@@H](Cc2ccc3ccccc3c2)C(=O)NCCC(=O)NCCC(N)=O)NC(=O)[C@H](CCCNC(=N)N)NC(=O)[C@H](CCC(N)=O)NC1=O (single isomer, unassigned) [SEQ ID NO: 111, L(N-methylQ)TLRXIQRX(CBA)(2-Nal)(β-Ala)(β-Ala)] | 3.07
